From paper PMC5845353, “The selective cathepsin K inhibitor MIV-711 attenuates joint pathology in experimental animal models of osteoarthritis” (Journal of Translational Medicine, 2018)

Assays:
[1] = tested on: dogs subjected to partial medial meniscectomy; experiment: Dog partial medial meniscectomy study, osteophyte measurement and grades; type: in vivo
Method: Osteophytes for each compartment were measured (basal endochondral ossification to surface of cartilage cap) and severity grades assigned according to the following: […]

[2] = tested on: bone resorption biomarker HP-1; experiment: Urinary HP-1 (bone resorption biomarker) in ACLT rabbits; type: in vivo, rabbit
Method: (§1) Starting 1 week after sham operation or ACLT, animals were dosed daily for 7 weeks by oral gavage with either MIV-711 (synthesized by Medivir and given as a suspension in 1% Methocel A4C in water) or vehicle (1% Methocel A4C in water) at a dose volume of 4 mL/kg. The four treatment groups (n = 7 in each group) were: (1) sham + vehicle; (2) ACLT + vehicle; (3) ACLT + MIV-711, 30 µmol/kg (low dose) and (4) ACLT + MIV-711, 100 µmol/kg (high dose).
Urine was collected in the morning from all animals for biomarker measurements before surgery, before dosing on Day 1, Day 10 and during Week 4 and Week 7. The urine was stored frozen (− 70 to − 80 °C) until analysis.
In rabbits, conventional CTX-I assays to assess bone resorption cannot be used due to species differences. Instead, urinary helical peptide (HP-1) concentrations were measured in rabbits using the MicroVue Helical Peptide kit (Ref: 8022) from Quidel (San Diego, CA) according to the instructions supplied by the manufacturer. In dogs, urinary levels of C-terminal telopeptide of collagen type I (CTX-I) were measured using a commercially available kit (Urine BETA CrossLaps ELISA, Ref: AC-05F1, IDS Nordic Bioscience Diagnostics A/S). In rabbits and dogs, urinary concentrations of C-terminal telopeptide of collagen type II (CTX-II) were measured using the Urine CartiLaps EIA kit (Ref: AC-10F1) from Immunodiagnostics Systems (IDS, Herlev, Denmark) according to the instructions supplied by the manufacturer. In dogs, CTX-II levels were also measured in synovial fluid. Before ELISA analysis, 95 µL of synovial fluid was mixed with 5 µL of hyaluronidase (100 U/mL, Sigma, H-3884). The mixture was incubated overnight at 35 °C. The mixture was then used to measure CTX-II levels (Serum Pre-Clinical CartiLaps ELISA, Ref: AC-08F1, IDS Nordic Bioscience Diagnostics A/S). The creatinine levels in urine were determined at Swedish University of Agricultural Sciences (Uppsala, Sweden), using the enzymatic assay (Cat No. 8L24-01) on the Abbott system Architect c4000.

Knee OA patients = conditions: once daily treatment for 6 months; cited from earlier work
[3] = Plasma concentrations of MIV-711 in ACLT rabbits (LC-MS/MS); type: in vivo; conditions: rabbit plasma
Method: as §1
Twelve blood samples of 1 mL each were collected from each animal for determination of MIV-711 concentrations in a staggered manner to cover as many time points as possible. The blood samples were collected on Day 1, Day 10 and during Week 4 and Week 7. The samples were collected in EDTA coated tubes and kept on ice. The plasma was separated by centrifugation (2000g for 3–5 min at 4 °C) and then frozen and kept at − 70 °C until analysis.
To measure MIV-711 concentrations, 10–50 µL of plasma or synovial fluid was mixed with 30–150 µL of acetonitrile, samples were centrifuged (10 min, 20,000g, 7 °C) and 5 µL of the supernatant was injected onto the LC–MS/MS system. The lower limit of quantification (LLOQ) was 1 nmol/L.

dog cathepsin K enzyme = conditions: read-out: Ki against dog cathepsin K enzyme; cited from earlier work
[4] = single oral administration 30 µmol/kg
[5] = single oral administration 100 µmol/kg

## C#C[C@@H]1CN(C(=O)[C@H](CC(C)C)NC(=O)c2ccc(-c3nc(N4CCN(C)CC4)sc3F)cc2)[C@@H]2C(=O)CO[C@H]12 [MIV-711]
[1]; MIV-711 group mean
  Osteophyte Score: 0.00
[1]; individual dogs of MIV-711 group
  Osteophyte Measure: 0 µm
[1]; individual dogs of MIV-711 group, mean of 3 sections
  Osteophyte Score: 0.00
[2]; ACLT rabbits, over doses 30 and 100 µmol/kg and time points
  HP-1 levels decreased by up to, vs ACLT vehicle controls: up to 72%
[2]; after 4 weeks, 30 µmol/kg
  urinary HP-1 levels reduced by, vs ACLT rabbits treated with vehicle: 43%
[2]; after 4 weeks, 100 µmol/kg
  urinary HP-1 levels reduced by, vs ACLT rabbits treated with vehicle: 68%
[2]; after 7 weeks, 30 µmol/kg (p > 0.05)
  urinary HP-1 levels reduced by, vs ACLT rabbits treated with vehicle: 25%
[2]; after 7 weeks, 100 µmol/kg
  urinary HP-1 levels reduced by, vs ACLT rabbits treated with vehicle: 51%
[2]; after 10 days of dosing, 30 µmol/kg
  urinary HP-1 levels reduced by, vs ACLT rabbits treated with vehicle: 45%
[2]; after 10 days of dosing, 100 µmol/kg
  urinary HP-1 levels reduced by, vs ACLT rabbits treated with vehicle: 72%
Knee OA patients
  benefit on joint structure by MRI compared to placebo: significantly lower increases in bone area and cartilage thinning
[3]; [4]
  AUC0–24 h: 0.78 µM·h
  Cmax: 250 nM
[3]; [5]
  AUC0–24 h: 7.0 µM·h
  Cmax: 1800 nM
Dog cathepsin K enzyme
  Ki: 1.5 nM
